Like-named read-outs stand apart in the source and are kept apart here.
Legend:
Type in all cases: cell-based
[1] = test system: HCV replicon cells (wild-type clone 24-2, Huh-7); assay: 2-day Replicon assay with bDNA quantitation, checkerboard combination (Bliss independence / MacSynergy); settings: VX-950 in the checkerboard experiment with the named polymerase inhibitor, read-out: VX-950 IC50
Protocol: Huh-7 cells were propagated in Dulbecco's modified Eagle's medium (DMEM, JRH Biosciences, Lenexa, Kans.) supplemented with 10% heat-inactivated FBS (fetal bovine serum), 2 mM L-glutamine, and nonessential amino acids (JRH). The cells were transfected with an in vitro transcribed HCV replicon RNA identical to replicon 1377neo/NS3-3′/wt as described by Lohmann et al. (1999). Stable cell clones were selected and maintained in the presence of 250 μg/mL G418 (Invitrogen, Carlsbad, Calif.). One of the clones, 24-2, was used as the wild-type in the subsequent HCV replicon assays for combination studies. The HCV NS3 protease variant replicons were constructed in the background of the mADE wild-type replicon as described previously [Chao Lin et al., “In Vitro Resistance Studies of Hepatitis C Virus Serine Protease Inhibitors, VX-950 and BILN 2061: Structural Analysis Indicates Different Resistance Mechanisms,” Journal of Biological Chemistry, 279(17); pp. 17508-17514 (2004)]. The replicon cells were propagated in DMEM supplemented with 10% FBS, 2 mM L-glutamine, nonessential amino acids, and 250 μg/mL G418. The cells were split twice per week in fresh media upon reaching confluence. There are approximately 200-300 copies of HCV RNA per 24-2 replicon cell.
(§1) HCV replicon RNA from cells was measured using the Quantigene Discover XL kit (Panomics Inc., Fremont Calif.) as per the manufacturer's instructions. Briefly, compound-treated replicon cells were lysed and immobilized on to capture plates using HCV specific oligonucleotides (designed based on the 5′ UTR region of HCV 1b genome sequence AJ238799 in the GenBank database) over night and the relative amounts of captured RNA was measured using oligonucleotide probe sets as per the manufacturer's instructions.
(§2) On the day prior to the assay, 10,000 replicon cells were plated per well of a 96-well plate and allowed to attach and grow overnight in DMEM (Invitrogen, Carlsbad, Calif.) supplemented with 10% heat-inactivated FBS (JRH Biosciences, Lenexa, Kans.), 2 mM L-glutamine (Invitrogen), nonessential amino acids (Invitrogen) and 250 μg/ml G418 (Invitrogen). Next day, the medium was removed and antiviral agents that were serially diluted in DMEM containing 2% FBS and 0.5% DMSO (Sigma Chemical Co., St. Louis, Mo.) without G418, was added. The replicon cells were incubated with the antiviral agents for 48 h. HCV replicon RNA from cells was measured using the Quantigene Discover XL kit (Panomics Inc., Fremont Calif.) as per the manufacturer's instructions. Briefly, compound-treated replicon cells were lysed and immobilized onto capture plates using HCV specific oligonucleotides overnight and the relative amounts of captured RNA was measured using oligonucleotide probe sets as per the manufacturer's instructions. Unless indicated otherwise, each data point represents the average of three replicates. The IC50 is the concentration of the compound at which the HCV replicon RNA level in cells is reduced by 50% as compared to the untreated replicon cell controls. To monitor the effect of compounds on cell proliferation or cell viability, replicon cells were treated with serially diluted compounds for 48 h, after which cell viability was determined using a CellTiter Glo assay (Promega, Madison, Wis.). Each CC50 is derived from at least two replicates and is the concentration of the compound at which the number of viable cells is reduced by 50% as compared to untreated cell controls. The IC50 and CC50 was determined using 4-parameter curve fitting in the SoftMax Pro program (Molecular Devices, Sunnyvale, Calif.).
The effects of drug-drug combinations were evaluated using the Bliss independence model [W. R. Greco et al., “The search for synergy: a critical review from a response surface perspective,” Pharmacol. Rev., 47, pp. 331-385 (1995)]. The experimental data were analyzed by using MacSynergy, a three-dimensional analytical method developed by Prichard and Shipman [M. N. Prichard and C. […]

[2] = test system: HCV replicon Wild Type (mADE); assay: 2-Day HCV Replicon IC50 Assay, wild type replicon; settings: Wild Type replicon
Protocol: (§3) Huh-7 cells were propagated in Dulbecco's modified Eagle's medium (DMEM, JRH Biosciences, Lenexa, Kans.) supplemented with 10% heat-inactivated FBS (fetal bovine serum), 2 mM L-glutamine, and nonessential amino acids (JRH). The cells were transfected with an in vitro transcribed HCV replicon RNA identical to replicon 1377neo/NS3-3′/wt as described by Lohmann et al. (1999). Stable cell clones were selected and maintained in the presence of 250 μg/mL G418 (Invitrogen, Carlsbad, Calif.). […] The HCV NS3 protease variant replicons were constructed in the background of the mADE wild-type replicon as described previously [Chao Lin et al., “In Vitro Resistance Studies of Hepatitis C Virus Serine Protease Inhibitors, VX-950 and BILN 2061: Structural Analysis Indicates Different Resistance Mechanisms,” Journal of Biological Chemistry, 279(17); pp. 17508-17514 (2004)]. The replicon cells were propagated in DMEM supplemented with 10% FBS, 2 mM L-glutamine, nonessential amino acids, and 250 μg/mL G418. The cells were split twice per week in fresh media upon reaching confluence. There are approximately 200-300 copies of HCV RNA per 24-2 replicon cell.
as §1, §2
(§4) The sensitivity of NS3 protease variants to ribavirin and interferon was assessed in a 2-Day HCV Replicon IC50 Assay.

[3] = test system: HCV NS3 protease variant replicon A156V; assay: 2-Day HCV Replicon IC50 Assay, A156V
Protocol: as §3, §1, §2, §4

**Q.** How did the IC50 ([1]; Hepatitis C virus, Huh-7, 48 h) turn out when `CCC[C@H](NC(=O)[C@@H]1[C@H]2CCC[C@H]2CN1C(=O)[C@@H](NC(=O)[C@@H](NC(=O)c1cnccn1)C1CCCCC1)C(C)(C)C)C(=O)C(=O)NC1CC1` [VX-950] was run?
**A.** Its IC50 is 310 nM.

**Q.** And the IC50 ([1]; 48 h, with polymerase inhibitor of Formula I)?
**A.** The IC50 was 420 nM.

**Q.** What about the IC50 ([1]; 48 h, with polymerase inhibitor of Formula II) of the same compound?
**A.** Its IC50 is 340 nM.

**Q.** And the IC50 ([2]; Hepatitis C virus, Table 8, read-out: Avg. IC50 ± STDEV)?
**A.** The IC50 was 460 ± 101 nM.

**Q.** And the “Fold Change” value ([2]; ratio of IC50 to Wild type IC50 for the same inhibitor)?
**A.** The value was 1 ± 0.2.

**Q.** And the “Fold Change” value ([3]; A156V, ratio of mutant IC50 to Wild type IC50 for the same inhibitor)?
**A.** Its value is over 65.2.

**Q.** And the IC50 ([3]; Hepatitis C virus, read-out: Avg. IC50 ± STDEV)?
**A.** The IC50 was over 30000 nM.
